Source: patent US20150105252A1, “SUBSTITUTED PYRAZOLES AS HERBICIDES” (E I DU PONT DE NEMOURS AND COMPANY, priority 2013, published 2015)

Columns and labels:
[1] = test system: barnyardgrass; test: Test C preemergence; assay type: in vivo, Echinochloa crus-galli; conditions: for Barnyardgrass plant response rating: scale 0 to 100 (0 no effect, 100 complete control)
In short: (§1)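 Herbicidal effect is expressed as percent visual control (0–100) judged against untreated plants 13 to 15 days after treatment in the greenhouse. Preemergence pots contained seeds in a soil–sand blend; postemergence plants, 2–18 cm tall, grew in peat-based planting medium.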

[2] = test system: corn; test: Test C preemergence; assay type: in vivo, Zea mays; conditions: for Corn plant response rating: scale 0 to 100 (0 no effect, 100 complete control)
In short: as §1

[3] = test system: pigweed; test: Test A postemergence; assay type: in vivo, Amaranthus retroflexus
In short: (§2)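 Greenhouse test in loam soil/sand blend; compounds formulated in non-phytotoxic solvent with surfactant, applied as preemergence directed soil spray or postemergence to plants 2–10 cm tall at one- to two-leaf stage. Injury rated visually versus untreated controls after approximately 10 days on a 0 (no effect) to 100 (complete control) scale.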

[4] = test system: wheat; test: Test A preemergence; assay type: in vivo, Triticum aestivum; conditions: preemergence
In short: as §2

[5] = test system: crabgrass, large; test: Test A postemergence; assay type: in vivo, Digitaria sanguinalis
In short: as §2

[6] = test system: crabgrass, large; test: Test A preemergence; assay type: in vivo, Digitaria sanguinalis; conditions: preemergence
In short: as §2

[7] = test system: oilseed rape; test: Test C preemergence; assay type: in vivo, Brassica napus; conditions: for Oilseed Rape plant response rating: scale 0 to 100 (0 no effect, 100 complete control)
In short: as §1

[8] = test system: wheat; test: Test A postemergence; assay type: in vivo, Triticum aestivum
In short: as §2

[9] = test system: velvetleaf; test: Test A preemergence; assay type: in vivo, Abutilon theophrasti; conditions: preemergence
In short: as §2

[10] = test system: velvetleaf; test: Test C preemergence; assay type: in vivo, Abutilon theophrasti; conditions: for Velvetleaf plant response rating: scale 0 to 100 (0 no effect, 100 complete control)
In short: as §1

[11] = test system: ragweed; test: Test C preemergence; assay type: in vivo, Ambrosia elation; conditions: for Ragweed plant response rating: scale 0 to 100 (0 no effect, 100 complete control)
In short: as §1

[12] = test system: blackgrass; test: Test C preemergence; assay type: in vivo, Alopecurus myosuroides; conditions: for Blackgrass plant response rating: scale 0 to 100 (0 no effect, 100 complete control)
In short: as §1

[13] = test system: barnyardgrass; test: Test A preemergence; assay type: in vivo, Echinochloa crus-galli; conditions: preemergence
In short: as §2

[14] = test system: johnsongrass; test: Test C preemergence; assay type: in vivo, Sorghum halepense; conditions: for Johnsongrass plant response rating: scale 0 to 100 (0 no effect, 100 complete control)
In short: as §1

[15] = test system: corn; test: Test A preemergence; assay type: in vivo, Zea mays; conditions: preemergence
In short: as §2

[16] = test system: wheat; test: Test C preemergence; assay type: in vivo, Triticum aestivum; conditions: for Wheat plant response rating: scale 0 to 100 (0 no effect, 100 complete control)
In short: as §1

[17] = test system: foxtail, giant; test: Test C preemergence; assay type: in vivo, Setaria faberii; conditions: for Foxtail, Giant plant response rating: scale 0 to 100 (0 no effect, 100 complete control)
In short: as §1

[18] = preemergence, 62 g ai/ha, 13 to 15 days
[19] = preemergence, 125 g ai/ha, 13 to 15 days, scale 0 to 100, 0 = no effect, 100 = complete control
[20] = preemergence, 31 g ai/ha, visual rating, 13 to 15 days
[21] = Postemergence, 500 g ai/ha, 0 to 100 scale (0 no effect, 100 complete control)
[22] = postemergence, 125 g ai/ha, about 10 days, visual rating on 0 to 100 scale (0 no effect, 100 complete control)
[23] = 125 g ai/ha, visual injury, 0 to 100 scale, approx. 10 days
[24] = 500 g ai/ha, visual injury after approx. 10 days, 0 to 100 scale (0 no effect, 100 complete control)

CCCc1cc(C(=O)NCC)nn1Cc1cc(C(F)(F)F)nn1C [Compound 129]
Plant response rating (scale of 0 to 100), Barnyardgrass ([1]; Preemergence, 250 g ai/ha): 100 | Barnyardgrass plant response rating ([1]; preemergence, 31 g ai/ha, 13 to 15 days): 95 | Barnyardgrass plant response rating [1, 18]: 100 | Plant response rating, Barnyardgrass [1, 19]: 100 | Plant response rating (scale of 0 to 100), Corn ([2]; Preemergence, 250 g ai/ha): 65 | Corn plant response rating [2, 20]: 0 | Corn plant response rating [2, 18]: 15 | Plant response rating, Corn [2, 19]: 55 | Pigweed plant response rating [3, 21]: 100 | Pigweed plant response rating [3, 22]: 100 | Wheat plant response rating [4, 23]: 50 | Wheat plant response rating [4, 24]: 100 | Crabgrass, Large plant response rating [5, 21]: 90 | Crabgrass, Large plant response rating [5, 22]: 80 | Crabgrass, Large plant response rating [6, 23]: 100 | Crabgrass, Large plant response rating [6, 24]: 100 | Plant response rating (scale of 0 to 100), Oilseed Rape ([7]; Preemergence, 250 g ai/ha): 100 | Oilseed Rape plant response rating [7, 20]: 95 | Oilseed Rape plant response rating [7, 18]: 95 | Plant response rating, Oilseed Rape [7, 19]: 100 | Wheat plant response rating [8, 21]: 70 | Wheat plant response rating [8, 22]: 50 | Velvetleaf plant response rating [9, 23]: 100 | Velvetleaf plant response rating [9, 24]: 100 | Plant response rating (scale of 0 to 100), Velvetleaf ([10]; Preemergence, 250 g ai/ha): 100 | Velvetleaf plant response rating [10, 20]: 55 | Velvetleaf plant response rating [10, 18]: 100 | Plant response rating, Velvetleaf [10, 19]: 100 | Plant response rating (scale of 0 to 100), Ragweed ([11]; Preemergence, 250 g ai/ha): 100 | Ragweed plant response rating [11, 20]: 85 | Ragweed plant response rating [11, 18]: 90 | Plant response rating, Ragweed [11, 19]: 98 | Plant response rating (scale of 0 to 100), Blackgrass ([12]; Preemergence, 250 g ai/ha): 90 | Blackgrass plant response rating [12, 20]: 60 | Blackgrass plant response rating [12, 18]: 80 | Plant response rating, Blackgrass [12, 19]: 90 | Barnyardgrass plant response rating [13, 23]: 90 | Barnyardgrass plant response rating [13, 24]: 100 | Plant response rating (scale of 0 to 100), Johnsongrass ([14]; Preemergence, 250 g ai/ha): 100 | Johnsongrass plant response rating [14, 20]: 10 | Johnsongrass plant response rating [14, 18]: 70 | Plant response rating, Johnsongrass [14, 19]: 98 | Corn plant response rating [15, 23]: 10 | Corn plant response rating [15, 24]: 30 | Plant response rating (scale of 0 to 100), Wheat ([16]; Preemergence, 250 g ai/ha): 90 | Wheat plant response rating [16, 20]: 0 | Wheat plant response rating [16, 18]: 35 | Plant response rating, Wheat [16, 19]: 85 | Plant response rating (scale of 0 to 100), Foxtail, Giant ([17]; Preemergence, 250 g ai/ha): 100 | Foxtail, Giant plant response rating [17, 20]: 100 | Foxtail, Giant plant response rating [17, 18]: 100 | Plant response rating, Foxtail, Giant [17, 19]: 100
